Measured values taken from US10377770B2 (Novartis AG, priority 2015, dated 2019).

Target: C-Raf FL (full length CRAF with Y340E and Y341E activating mutations, co-expressed with h14-3-3 zeta) (Homo sapiens (Human), UniProt P04049, Y340E/Y341E)
Test: In vitro Raf activity determination, AlphaScreen p-MEK readout, c-Raf (C-Raf FL)
Assay type: biochemical
Conditions: c-Raf approximately 4 nM, ATP 1 μM, pre-incubation 60 minutes, reaction 1 hour
How it was run: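 Phosphorylation of kinase-dead biotinylated MEK1 (~10 nM) by C-Raf FL (~4 nM) read by AlphaScreen luminescence with anti-phospho-MEK1/2 after EDTA stop. ATP was 1 μM, with a 1 h reaction at room temperature. Compounds were pre-incubated with enzyme and substrate for 60 min in Tris/MgCl2 buffer, pH 7.5.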

Sequence of C-Raf FL (full length CRAF with Y340E and Y341E activating mutations, co-expressed with h14-3-3 zeta) (P04049 whole entry Y340E/Y341E): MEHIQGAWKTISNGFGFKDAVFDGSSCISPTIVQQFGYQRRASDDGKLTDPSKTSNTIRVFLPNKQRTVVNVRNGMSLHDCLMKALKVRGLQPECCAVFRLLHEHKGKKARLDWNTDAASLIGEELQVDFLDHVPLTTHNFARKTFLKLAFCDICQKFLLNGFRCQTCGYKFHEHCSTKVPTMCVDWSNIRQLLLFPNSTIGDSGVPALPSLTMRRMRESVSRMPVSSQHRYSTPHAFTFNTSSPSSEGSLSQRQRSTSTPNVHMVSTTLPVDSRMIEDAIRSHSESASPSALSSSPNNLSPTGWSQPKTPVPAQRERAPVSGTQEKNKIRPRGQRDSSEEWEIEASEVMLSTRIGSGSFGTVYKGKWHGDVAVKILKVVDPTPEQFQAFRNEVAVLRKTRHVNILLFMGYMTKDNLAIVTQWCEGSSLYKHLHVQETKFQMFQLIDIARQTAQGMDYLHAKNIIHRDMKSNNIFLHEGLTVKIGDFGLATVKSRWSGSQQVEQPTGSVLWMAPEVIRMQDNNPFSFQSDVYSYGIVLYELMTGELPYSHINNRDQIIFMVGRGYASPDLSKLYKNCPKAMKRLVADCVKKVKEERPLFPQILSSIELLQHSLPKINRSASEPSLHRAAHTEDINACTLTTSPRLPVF
Sequence of C-Raf FL (full length CRAF with Y340E and Y341E activating mutations, co-expressed with h14-3-3 zeta) (P63104 whole entry partner): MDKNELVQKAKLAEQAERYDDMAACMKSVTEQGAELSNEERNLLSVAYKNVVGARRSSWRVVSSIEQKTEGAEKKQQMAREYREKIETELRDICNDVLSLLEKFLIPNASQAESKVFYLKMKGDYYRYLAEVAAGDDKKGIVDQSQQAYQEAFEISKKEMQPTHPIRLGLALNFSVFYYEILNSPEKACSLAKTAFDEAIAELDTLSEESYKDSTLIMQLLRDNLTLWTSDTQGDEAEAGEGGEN

Compound	IC50 [nM]
Cc1ccc(NC(=O)c2ccnc(C(F)(F)F)c2)cc1-c1cnc2c(c1)C1CCOCC1OC(=O)N2CCO (stereo not drawn) [Example 330, N-(3-((4,11b-cis)-7-(2-hydroxyethyl)-6-oxo-2,4,4a,6,7,11b-hexahydro-1H-pyrano[4,3-f]pyrido[2,3-d][1,3]oxazepin-10-yl)-4-methylphenyl)-2-(trifluoromethyl) isonicotinamide]	3.1
Cc1ccc(NC(=O)c2ccnc(C(F)(F)F)c2F)cc1-c1cnc2c(c1)C1CCOCC1OC(=O)N2CCO (stereo not drawn) [Example 331, 3-fluoro-N-(3-((4,11b-cis)-7-(2-hydroxyethyl)-6-oxo-2,4,4a,6,7,11b-hexahydro-1H-pyrano[4,3-f]pyrido[2,3-d][1,3]oxazepin-10-yl)-4-methylphenyl)-2-(trifluoromethyl) isonicotinamide]	6.6
Cc1ccc(NC(=O)c2ccnc(C(C)(F)F)c2)cc1-c1cnc2c(c1)C1CCOCC1OC(=O)N2CCO (stereo not drawn) [Example 332, 2-(1,1-difluoroethyl)-N-(3-((4,11b-cis)-7-(2-hydroxyethyl)-6-oxo-2,4,4a,6,7,11b-hexahydro-1H-pyrano[4,3-f]pyrido[2,3-d][1,3]oxazepin-10-yl)-4-methylphenyl) isonicotinamide]	2.1
Cc1ccc(NC(=O)c2ccnc(C(F)(F)F)c2)cc1-c1cnc2c(c1)N1CCOCC1C(C)(C)C2O (stereo not shown) [Example 335, N-(3-(6-hydroxy-5,5-dimethyl-1,2,4,4a,5,6-hexahydro-[1.4]oxazino[4,3-a][1.5]naphthyridin-9-yl)-4-methylphenyl)-2-(trifluoromethyl) isonicotinamide]	0.1
Cc1ccc(NC(=O)c2ccnc(C(F)(F)F)c2F)cc1-c1cnc2c(c1)N1CCOCC1C(C)(C)C2O (stereo not shown) [Example 336, 3-fluoro-N-(3-(6-hydroxy-5,5-dimethyl-1,2,4,4a,5,6-hexahydro-[1,4]oxazino[4,3-a][1,5]naphthyridin-9-yl)-4-methylphenyl)-2-(trifluoromethyl) isonicotinamide]	0.2
Cc1ccc(NC(=O)c2ccnc(C(F)(F)F)c2F)cc1-c1cnc2c(c1)N1CCOCC1C(C)(C)C2O (stereo not shown) [Example 337, 3-fluoro-N-(3-(6-hydroxy-5,5-dimethyl-1,2,4,4a,5,6-hexahydro-[1,4]oxazino[4,3-a][1,5]naphthyridin-9-yl)-4-methylphenyl)-2-(trifluoromethyl) isonicotinamide]	0.3
CCN1C(=O)C2(F)COCC[C@@H]2c2cc(-c3cc(NC(=O)c4ccnc(C(C)(F)F)c4)ccc3C)cnc21 (stereo partly drawn) [Example 338, 2-(1,1-difluoroethyl)-N-(3-((10bR)-6-ethyl-4a-fluoro-5-oxo-2,4,4a,5,6,10b-hexahydro-1H-pyrano[3,4-c][1,8]naphthyridin-9-yl)-4-methylphenyl)isonicotinamide]	0.5
CCN1C(=O)C2(F)COCC[C@@H]2c2cc(-c3cc(NC(=O)c4ccnc(C(F)(F)F)c4)ccc3C)cnc21 (stereo partly drawn) [Example 339, N-(3-((10bR)-6-ethyl-4a-fluoro-5-oxo-2,4,4a,5,6,10b-hexahydro-1H-pyrano[3,4-c][1,8]naphthyridin-9-yl)-4-methylphenyl)-2-(trifluoromethyl) isonicotinamide]	0.5
CCN1C(=O)C2(F)COCC[C@@H]2c2cc(-c3cc(NC(=O)c4cccc(C(F)(F)F)c4)cnc3C)cnc21 (stereo partly drawn) [Example 340, N-(5-((10bR)-6-ethyl-4a-fluoro-5-oxo-2,4,4a,5,6,10b-hexahydro-1H-pyrano[3,4-c][1,8]naphthyridin-9-yl)-6-methylpyridin-3-yl)-3-(trifluoromethyl) benzamide]	1.3
CCN1C(=O)C2COCCC2(C)c2cc(-c3cc(NC(=O)c4ccnc(C(F)(F)F)c4F)ccc3C)cnc21 (stereo not drawn) [Example 347, N-(3-((4a,10b- trans)-6-ethyl-10b-methyl-5-oxo-2,4,4a.5,6,10b-hexahydro-1H-pyrano[3,4-c][1,8]naphthyridin-9-yl)-4-methylphenyl)-3-fluoro-2-(trifluoromethyl) isonicotinamide]	0.3
CCN1C(=O)C2COCCC2(C)c2cc(-c3cc(NC(=O)c4ccnc(C(F)(F)F)c4F)ccc3C)cnc21 (stereo not drawn) [Example 348, N-(3-((4a,10b- trans)-6-ethyl-10b-methyl-5-oxo-2,4,4a,5,6,10b-hexahydro-1H-pyrano[3,4-c][1,8]naphthyridin-9-yl)-4-methylphenyl)-3-fluoro-2-(trifluoromethyl) isonicotinamide]	0.7
CCN1C(=O)C2COCCC2(C)c2cc(-c3cc(NC(=O)c4cccc(C(F)(F)F)c4)cnc3C)cnc21 (stereo not drawn) [Example 349, N-(5-((4a,10b- trans)-6-ethyl-10b-methyl-5-oxo-2,4,4a,5,6,10b-hexahydro-1H-pyrano[3,4-c][1,8]naphthyridin-9-yl)-6-methylpyridin-3-yl)-3-(trifluoromethyl) benzamide]	3
CCN1c2ncc(-c3cc(NC(=O)c4ccnc(C(F)(F)F)c4)ccc3C)cc2[C@@H]2CCOC[C@H]2C12CC2 [Example 361, N-(3-((4a′R,10b′R)-6′-ethyl-1′,2′,4′,4a′,6′,10b′-hexahydrospiro[cyclopropane-1,5′-pyrano[3,4-c][1,8]naphthyridin]-9′-yl)-4-methylphenyl)-2-(trifluoromethyl)isonicotinamide]	0.9
Cc1ncc(NC(=O)c2cccc(C(C)(F)F)c2)cc1-c1ccc2c(c1)N1CCOC[C@H]1[C@](F)(CO)C2 [Example 367, 3-(1,1-difluoroethyl)-N-(5-((4aS,5S)-5-fluoro-5-(hydroxymethyl)-1,2,4,4a,5,6-hexahydro-[1,4]oxazino[4,3-a]quinolin-9-yl)-6-methylpyridin-3-yl)benzamide]	1
Cc1ncc(NC(=O)c2cccc(C(C)(F)F)c2)cc1-c1ccc2c(c1)N1CCOC[C@@H]1[C@@](F)(CO)C2 [Example 368, 3-(1,1-difluoroethyl)-N-(5-((4aR,5R)-5-fluoro-5-(hydroxymethyl)-1,2,4,4a,5,6-hexahydro-[1,4]oxazino[4,3-a]quinolin-9-yl)-6-methylpyridin-3-yl)benzamide]	0.1
Cc1ccc(NC(=O)c2ccnc(C(C)(F)F)c2)cc1-c1ccc2c(c1)N1CCOC[C@H]1[C@](F)(CO)C2 [Example 369, 2-(1,1-difluoroethyl)-N-(3-((4aS,5S)-5-fluoro-5-(hydroxymethyl)-1,2,4,4a,5,6-hexahydro-[1,4]oxazino[4,3-a]quinolin-9-yl)-4-methylphenyl)isonicotinamide]	0.3
Cc1ccc(NC(=O)c2ccnc(C(C)(F)F)c2)cc1-c1ccc2c(c1)N1CCOC[C@@H]1[C@@](F)(CO)C2 [Example 370, 2-(1,1-difluoroethyl)-N-(3-((4aR,5R)-5-fluoro-5-(hydroxymethyl)-1,2,4,4a,5,6-hexahydro-[1,4]oxazino[4,3-a]quinolin-9-yl)-4-methylphenyl)isonicotinamide]	0.1
Cc1ccc(NC(=O)c2ccnc(C(C)(F)F)c2)cc1-c1ccc2c(c1)N1CCOC[C@H]1[C@@](F)(CO)C2 [Example 371, 2-(1,1-difluoroethyl)-N-(3-((4aS,5R)-5-fluoro-5-(hydroxymethyl)-1,2,4,4a,5,6-hexahydro-[1,4]oxazino[4,3-a]quinolin-9-yl)-4-methylphenyl)isonicotinamide]	0.2
Cc1ccc(NC(=O)c2ccnc(C(C)(F)F)c2)cc1-c1ccc2c(c1)N1CCOC[C@@H]1[C@](F)(CO)C2 [Example 372, 2-(1,1-difluoroethyl)-N-(3-((4aR,5S)-5-fluoro-5-(hydroxymethyl)-1,2,4,4a,5,6-hexahydro-[1,4]oxazino[4,3-a]quinolin-9-yl)-4-methylphenyl)isonicotinamide]	0.3
Cc1ccc(NC(=O)c2ccnc(C(C)(F)F)c2)cc1-c1ccc2c(c1)N1CCOC[C@H]1[C@@](C)(C#N)C2 [Example 373, N-(3-((4aR,5S)-5-cyano-5-methyl-1,2,4,4a,5,6-hexahydro-[1,4]oxazino[4,3-a]quinolin-9-yl)-4-methylphenyl)-2-(1,1-difluoroethyl)isonicotinamide]	0.4
Cc1ccc(NC(=O)c2ccnc(C(C)(F)F)c2)cc1-c1ccc2c(c1)N1CCOC[C@@H]1[C@](C)(C#N)C2 [Example 374, N-(3-((4aS,5R)-5-cyano-5-methyl-1,2,4,4a,5,6-hexahydro-[1,4]oxazino[4,3-a]quinolin-9-yl)-4-methylphenyl)-2-(1,1-difluoroethyl)isonicotinamide]	0.2
Cc1ncc(NC(=O)c2ccnc(C(C)(F)F)c2)cc1-c1ccc2c(c1)N1CCOC[C@H]1[C@@](C)(C#N)C2 [Example 375, N-(5-((4aR,5S)-5-cyano-5-methyl-1,2,4,4a,5,6-hexahydro-[1,4]oxazino[4,3-a]quinolin-9-yl)-6-methylpyridin-3-yl)-2-(1,1-difluoroethyl)isonicotinamide]	0.4
Cc1ncc(NC(=O)c2ccnc(C(C)(F)F)c2)cc1-c1ccc2c(c1)N1CCOC[C@@H]1[C@](C)(C#N)C2 [Example 376, N-(5-((4aS,5R)-5-cyano-5-methyl-1,2,4,4a,5,6-hexahydro-[1,4]oxazino[4,3-a]quinolin-9-yl)-6-methylpyridin-3-yl)-2-(1,1-difluoroethyl)isonicotinamide]	0.5
Cc1ccc(NC(=O)c2ccnc(C(F)(F)F)c2)cc1-c1cnc2c(c1)N1CCOC[C@H]1[C@](C)(C#N)C2 [Example 377, N-(3-((4aR,5R)-5-cyano-5-methyl-1,2,4,4a,5,6-hexahydro-[1,4]oxazino[4,3-a][1,5]naphthyridin-9-yl)-4-methylphenyl)-2-(trifluoromethyl)isonicotinamide]	0.9
Cc1ccc(NC(=O)c2ccnc(C(F)(F)F)c2)cc1-c1cnc2c(c1)N1CCOC[C@@H]1[C@@](C)(C#N)C2 [Example 378, N-(3-((4aS,5S)-5-cyano-5-methyl-1,2,4,4a,5,6-hexahydro-[1,4]oxazino[4,3-a][1,5]naphthyridin-9-yl)-4-methylphenyl)-2-(trifluoromethyl)isonicotinamide]	0.2
